These results are taken from patent US20170226139A1, “CRYSTALLINE SALTS OF (Z)-O-OCTADEC-9-EN-1-YL O,O-DIHYDROGEN PHOSPHOROTHIOATE” (priority 2013, published 2017).

Data set [1] addresses LPA2 receptors from the rhesus (Macaca mulatta, UniProt I2CXV3). The data set can be described thus: Calcium-mobilization assay (FURA-2), rhesus LPA2. Format: cell-based. The procedure:
We investigated structure-activity relationships across species, LPAR subtypes and between Rx100 and two known process impurities encountered in manufacture: Rx103 (‘E’ isomer) and Rx200 (oleyl phosphate and impurity, which can be an Rx100 degradant along with oleyl alcohol). Rx100, Rx103, Rx200 and native LPA were investigated at different human LPAR subtypes. In addition, the activity of these compounds was evaluated at LPA2 receptors from the rhesus, rat and mouse species. Human LPA1/2/3 subtypes were transfected into mouse embryonic fibroblasts (MEF) or rat hepatoma cells (RH7777)—both of which are normally non-responsive or null to LPA. Human LPA4 was transfected into Chinese hamster ovary (CHO) cells and LPA5 into the B103 neuroblastoma cell line. […] The B103 rat neuroblastoma cell line is endogenously nonresponsive to LPA but expresses heterologous LPA5 receptors well. […] LPAR activation elicits a G-protein-mediated transient rise in intracellular calcium level that is proportional to the concentration of LPA applied. The intracellular calcium level was quantified by the calcium-selective fluorescent indicator FURA-2 (e.g., increased intracellular calcium surge=increased fluorescence).

Data set [2] is described as follows: 28-day repeat-dose subcutaneous toxicity and toxicokinetics in rats. Particulars: Sprague Dawley, rat, plasma, subcutaneous; day 27; lowest dose of 1.81 mg/kg/day. Format: in vivo, Sprague Dawley rats. The source says:
(§1) The remaining 5 rats per group in the control and high dose groups were then allowed a 14-day recovery period following treatment. Parameters evaluated included mortality (twice daily) clinical signs, food consumption (weekly), body weights (weekly), ophthalmoscopy (pre-dosing and prior to necropsy), hematology and clinical chemistry (Week 4), gross pathology, organ weights, and histopathology for all tissues in all dose groups. […] Ophthalmological examinations were unremarkable. […] Secondary changes included increased spleen weights and changes in other male reproductive organs. An increase in adrenal weights may have been related to a stress response. Macroscopic changes at necropsy included small testes (middle and high dose) and lesions apparent at the injection sites in some animals at all dose levels.
(§2) At recovery, only effects in male reproductive organs were evident at the highest dose, with skin lesions still evident in some animals at the highest dose. […] Cmax and AUC were generally higher at the end of the study compared to day 1. No gender differences were apparent.

Another data set deals with Sprague Dawley rats. The description is as above. Format: in vivo.
From the text: as §1, §2

For another data set, the system named is cynomolgus monkeys. The data set can be described thus: Single-dose range-finding and 7-day repeat-dose toxicity in monkeys. Format: in vivo. The procedure: In the first phase of the range-finding monkey study, one male and one female cynomolgus monkeys received single subcutaneous doses of Rx100.Lysine at 0.3, 1, 3, 10, 25 and 75 mg/kg of free acid. The vehicle for all doses was Sterile water for injection with 10 mM L-histidine. In the 7-day repeat-dose phase, two males and females were dosed subcutaneously at 10 mg/kg/day. Parameters evaluated included clinical signs, body weight, food consumption, and clinical and anatomic pathology. […] Animals were subsequently sacrificed. […] No effects on body weights were seen.

Data set [3] can be described thus: Solubility by incremental addition method in water or simulated formulation solvent.

Where two headings read alike, the source gives them in different places.

Sequence of LPA2 receptors from the rhesus (I2CXV3 1-351): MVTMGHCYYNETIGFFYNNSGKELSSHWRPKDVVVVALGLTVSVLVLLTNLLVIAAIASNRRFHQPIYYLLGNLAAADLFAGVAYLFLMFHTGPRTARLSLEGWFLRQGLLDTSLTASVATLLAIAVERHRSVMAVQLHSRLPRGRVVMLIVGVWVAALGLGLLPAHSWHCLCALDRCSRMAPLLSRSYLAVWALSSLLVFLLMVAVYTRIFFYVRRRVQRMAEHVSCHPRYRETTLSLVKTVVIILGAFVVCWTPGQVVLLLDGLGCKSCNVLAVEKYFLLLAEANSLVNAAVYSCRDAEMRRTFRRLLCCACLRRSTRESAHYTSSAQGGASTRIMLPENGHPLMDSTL

The EC50 is the concentration at which the effect is half-maximal. The term Emax denotes the size of the effect at its maximum, as opposed to the concentration needed. Consider `CCCCCCCC/C=C\CCCCCCCCOP(O)(O)=S` [Rx100, (Z)—O-octadec-9-en-1-yl O,O-dihydrogen phosphorothioate], for which the half-maximal effective concentration (EC50) in data set [1] was found to be 0.104 µM. The Emax in data set [1] (read-out: Emax (% of LPA)) was 100%.
What is called AUC is concentration integrated over time. A lower AUC goes with low exposure. Compound `CCCCCCCC/C=C\CCCCCCCCOP(O)(O)=S` [Rx100.L-Lysine, (Z)—O-octadec-9-en-1-yl O,O-dihydrogen phosphorothioate] came in with an AUC at 27 day in data set [2] of 5.04 µg·h/mL. In addition, the mortality entry in the data set on Sprague Dawley rats (28 days SC, 1.81, 6.33 and 18.1 (later 12.7) mg/kg/day) is listed as “All animals survived the treatment period except for one high dose female”. Also, the injection site lesions result in the data set with Sprague Dawley rats (28 days SC, dose relationship to incidence and severity) is “discoloration, scabbing, and swelling was observed in all treatment groups”. Besides, in the data set on Sprague Dawley rats (at >6.33 mg/kg), the clinical chemistry changes result was “mildly lower albumin concentration and A/G ratio, higher globulin concentration and moderately higher triglycerides”. Further, the liver weights result in the data set with Sprague Dawley rats (both genders) was “dose related increased liver weights in the middle and high dose groups”. The body weight gains result in the data set with Sprague Dawley rats (high dose) is “reduced”. Also, in the data set with Sprague Dawley rats (males), the NOAEL result is recorded as “could not be clearly established” and the testicular weights entry is given as “dose related decreased testicular weights in all groups of males”. Besides, in the data set with Sprague Dawley rats (middle and high dose levels), the “hematology, red cell changes” value is “lower red cell parameters and higher reticulocyte counts”. Also, in the data set on Sprague Dawley rats (rat, in vivo), the coagulation studies entry was “lower APPT in the females at the high dose and higher fibrinogen levels at all doses”; the “hematology, white cell parameters and platelets” value was “increased leukocyte, neutrophil, eosinophil and basophil counts and increased platelets”; the “histopathology, injection sites” value was “chronic mixed cell inflammation at all doses”; the “histopathology, liver” value is recorded as “dose related increased hepatocyte vacuolation at all doses”. In the data set with Sprague Dawley rats (rat, in vivo), the “histopathology, testes” value is “degeneration and necrosis of the seminiferous tubules in all animals at the middle and high dose and in one animal at the low dose”; the ophthalmological examinations result is reported as “unremarkable”; the “toxicokinetics, plasma concentrations” value is “dose related increases in plasma concentrations”. The liver enzymes entry with Sprague Dawley rats (some animals at 18.1/12.7 mg/kg) was “elevated liver enzymes”. In addition, in the data set on cynomolgus monkeys (10 mg/kg/day SC, 7 days), the “effects on body weights” value is recorded as “No effects”; the “signs in repeated dose phase” value was “intermittent food consumption and adverse effects at the injection sites”. The clinical signs result in the data set with cynomolgus monkeys (single SC dose 75 mg/kg) was “animals became hunched and were obviously in pain”. For the same compound, the treatment related effects result in the data set on cynomolgus monkeys (single SC doses up to and including 25 mg/kg) is reported as “no meaningful treatment related effects”. Further, in data set [3], the “Solubility in water” value is on record as “soluble in water”. The “Solubility in the simulated formulation solvent” value in data set [3] (3% polyethylene glycol 200, 1% ethanol, 10 mM monosodium phosphate, balance water) is listed as “soluble”. The “Solubility in water” value in data set [3] (listed as L-Lysine salt) was “soluble”.
